Measurements reported in patent US8785489B2, “Heteroaryl substituted indole compounds useful as MMP-13 inhibitors” (Boehringer Ingelheim International GmbH, priority 2008, dated 2014).

target: MMP13 (Homo sapiens (Human), UniProt P45452); test: EnzoLyte 520 Generic MMP Assay Kit, 5-FAM/QXL 520 FRET peptide substrate; assay type: biochemical
Excerpt: The EnzoLyte™ 520 Generic MMP Assay Kit (AnaSpec Inc.) can detect the activity of several MMPs including MMP-1, 2, 3, 7, 8, 9, 13, and 14. This kit uses a 5-FAM/QXL™ 520 fluorescence resonance energy transfer (FRET) peptide as an MMP substrate. In the intact FRET peptide, the fluorescence of 5-FAM is quenched by QXL™ 520. Upon cleavage into two separate fragments by MMPs, the fluorescence of 5-FAM is recovered, and can be monitored at excitation/emission wavelengths=490 nm/520 nm. The assays are performed in a convenient 96-well or 384-well microplate format.

First: Cc1noc(-c2cc3cc(-c4nc(C(=O)NCC5COCCO5)[nH]c4C)ccc3[nH]2)n1 (stereo not shown)
Second: Cc1noc(-c2cc3cc(-c4nc(C(=O)NC[C@@H]5CCCO5)[nH]c4C)ccc3[nH]2)n1 [5-methyl-4-[2-(3-methyl-1,2,4-oxadiazol-5-yl)-1H-indol-5-yl]-N-[(2S)-tetrahydrofuran-2-ylmethyl]-1H-imidazole-2-carboxamide]
The IC50 of the first is 2.1-fold lower: 1.9 nM for the first, 4 nM for the second. The first is the more potent here.

Compared with Cc1noc(-c2cc3cc(-c4nc(C(=O)NCc5ccccc5)[nH]c4C)ccc3[nH]2)n1 [N-benzyl-5-methyl-4-[2-(3-methyl-1,2,4-oxadiazol-5-yl)-1H-indol-5-yl]-1H-imidazole-2-carboxamide], Cc1noc(-c2cc3cc(-c4nc(C(=O)NCc5ccc(F)cc5)[nH]c4C)ccc3[nH]2)n1 is 3-fold higher in IC50: 2 nM for the first, 6 nM for the second. The first is the more potent here.

First: Cc1noc(-c2cc3cc(-c4nc(C(=O)NCc5ccno5)[nH]c4C)ccc3[nH]2)n1 [N-(isoxazol-5-ylmethyl)-5-methyl-4-[2-(3-methyl-1,2,4-oxadiazol-5-yl)-1H-indol-5-yl]-1H-imidazole-2-carboxamide]
Second: Cc1noc(-c2cc3cc(-c4nc(C(=O)NCc5nccs5)[nH]c4C)ccc3[nH]2)n1 [5-methyl-4-[2-(3-methyl-1,2,4-oxadiazol-5-yl)-1H-indol-5-yl]-N-(1,3-thiazol-2-ylmethyl)-1H-imidazole-2-carboxamide]
The IC50 of the first is 2.9-fold lower: 0.7 nM for the first, 2 nM for the second. The first is the more potent here.

Compared with Cc1[nH]c(C(=O)NCc2ccncc2)nc1-c1ccc2[nH]c(-c3nc(C(C)C)no3)cc2c1, Cc1[nH]c(C(=O)NCc2ccncc2)nc1-c1ccc2[nH]c(-c3nc(C4CC4)no3)cc2c1 is 3-fold lower in IC50: 18 nM for the first, 6 nM for the second.

Compared with Cc1noc(-c2cc3cc(-c4cc(C(=O)NCc5cnn(C)c5)nn4C)ccc3[nH]2)n1 [1-methyl-5-[2-(3-methyl-1,2,4-oxadiazol-5-yl)-1H-indol-5-yl]-N-[(1-methyl-1H-pyrazol-4-yl)methyl]-1H-pyrazole-3-carboxamide], Cc1noc(-c2cc3cc(-c4cc(C(=O)NCc5ccn(C)n5)nn4C)ccc3[nH]2)n1 [1-methyl-5-[2-(3-methyl-1,2,4-oxadiazol-5-yl)-1H-indol-5-yl]-N-[(1-methyl-1H-pyrazol-3-yl)methyl]-1H-pyrazole-3-carboxamide] is 18-fold higher in IC50: 10 nM for the first, 185 nM for the second. The first is the more potent here.

Compared with Cc1noc(-c2cc3cc(-c4nc(C(=O)NCc5ccc(C#N)cc5)[nH]c4C)ccc3[nH]2)n1, Cc1noc(-c2cc3cc(-c4nc(C(=O)NCc5ccc(=O)[nH]c5)[nH]c4C)ccc3[nH]2)n1 is 10-fold lower in IC50: 2 nM for the first, 0.2 nM for the second. The second is the more potent here.

First: CCOC(=O)c1cc2cc(-c3cc(C(=O)NCc4ccc(CC(=O)OC)cc4)nn3C)ccc2[nH]1
Second: CCOC(=O)c1cc2cc(-c3cc(C(=O)NCc4ccncc4)nn3C)ccc2[nH]1
The IC50 of the first is 1.9-fold lower: 51 nM for the first, 97 nM for the second.

Cc1noc(-c2cc3cc(-c4nc(C(N)=O)[nH]c4C)ccc3[nH]2)n1 [5-methyl-4-[2-(3-methyl-1,2,4-oxadiazol-5-yl)-1H-indol-5-yl]-1H-imidazole-2-carboxamide] and CCNC(=O)c1nc(-c2ccc3[nH]c(-c4nc(C)no4)cc3c2)c(C)[nH]1 are the same in IC50: 10 nM for the first, 10 nM for the second.

Going from Cc1noc(-c2cc3cc(-c4ccnc(C(=O)NCc5ccncc5)c4)ccc3[nH]2)n1 to Cc1nc(-c2cc3cc(-c4ccnc(C(=O)NCc5ccncc5)c4)ccc3[nH]2)no1, the IC50 rises from 12 nM to 38 nM (3.2-fold). The first is the more potent here.

Going from Cc1noc(-c2cc3cc(-c4cc(C(=O)NCc5ccco5)nn4C)ccc3[nH]2)n1 to Cc1noc(-c2cc3cc(-c4cc(C(=O)NCc5ccoc5)nn4C)ccc3[nH]2)n1, the IC50 rises from 27 nM to 45 nM (1.7-fold). The first is the more potent here.

First: Cc1noc(-c2cc3cc(-c4nc(C(=O)NCc5cnn(C)c5)[nH]c4C)ccc3[nH]2)n1 [5-methyl-4-[2-(3-methyl-1,2,4-oxadiazol-5-yl)-1H-indol-5-yl]-N-[(1-methyl-1H-pyrazol-4-yl)methyl]-1H-imidazole-2-carboxamide]
Second: Cc1noc(-c2cc3cc(-c4nc(C(=O)NCc5ccccn5)[nH]c4C)ccc3[nH]2)n1
The IC50 of the first is 7.5-fold lower: 0.4 nM for the first, 3 nM for the second.

Going from Cc1noc(-c2cc3cc(-c4nc(C(=O)NCCN5CCOCC5)[nH]c4C)ccc3[nH]2)n1 to Cc1noc(-c2cc3cc(-c4nc(C(=O)NCC5CCOCC5)[nH]c4C)ccc3[nH]2)n1 [5-methyl-4-[2-(3-methyl-1,2,4-oxadiazol-5-yl)-1H-indol-5-yl]-N-(tetrahydro-2H-pyran-4-ylmethyl)-1H-imidazole-2-carboxamide], the IC50 falls from 5 nM to 1.1 nM (4.5-fold).

Compared with Cc1cc(Cn2cc(-c3ccnc(C(=O)NCc4ccc(C(=O)O)cc4)c3)cn2)ccc1F, CCOC(=O)c1cc2cc(-c3ccnc(C(=O)NCc4ccc(C(=O)O)cc4)c3)ccc2[nH]1 is 190-fold lower in IC50: 130 nM for the first, 0.7 nM for the second. The second is the more potent here.

Compared with Cc1noc(-c2cc3cc(-c4cc(C(=O)NCc5ccc(C(=O)O)cc5)nn4C)ccc3[nH]2)n1, Cc1noc(-c2cc3cc(-c4cc(C(=O)NCc5ccc(F)cc5)nn4C)ccc3[nH]2)n1 is 130-fold higher in IC50: 0.2 nM for the first, 26 nM for the second. The first is the more potent here.

Going from Cc1noc(-c2cc3cc(-c4nc(C(=O)NCC5CC5)[nH]c4C)ccc3[nH]2)n1 [N-(cyclopropylmethyl)-5-methyl-4-[2-(3-methyl-1,2,4-oxadiazol-5-yl)-1H-indol-5-yl]-1H-imidazole-2-carboxamide] to Cc1noc(-c2cc3cc(-c4nc(C(=O)NC5CC5)[nH]c4C)ccc3[nH]2)n1 [N-cyclopropyl-5-methyl-4-[2-(3-methyl-1,2,4-oxadiazol-5-yl)-1H-indol-5-yl]-1H-imidazole-2-carboxamide], the IC50 rises from 8 nM to 26 nM (3.2-fold).

Compared with Cc1noc(-c2cc3cc(-c4cc(C(=O)NCc5cncs5)nn4C)ccc3[nH]2)n1 [1-methyl-5-[2-(3-methyl-1,2,4-oxadiazol-5-yl)-1H-indol-5-yl]-N-(1,3-thiazol-5-ylmethyl)-1H-pyrazole-3-carboxamide], Cc1noc(-c2cc3cc(-c4cc(C(=O)NCc5nccs5)nn4C)ccc3[nH]2)n1 [1-methyl-5-[2-(3-methyl-1,2,4-oxadiazol-5-yl)-1H-indol-5-yl]-N-(1,3-thiazol-2-ylmethyl)-1H-pyrazole-3-carboxamide] is 7.3-fold higher in IC50: 10 nM for the first, 73 nM for the second.

Going from CCOC(=O)c1cc2cc(-c3ccnc(C(=O)NCc4ccc(=O)[nH]c4)c3)ccc2[nH]1 to CCOC(=O)c1cc2cc(-c3ccnc(C(=O)NCc4ccncc4)c3)ccc2[nH]1 [5-{2-[(Pyridin-4-ylmethyl)-carbamoyl]-pyridin-4-yl}-1H-indole-2-carboxylic acid ethyl ester], the IC50 rises from 35 nM to 94 nM (2.7-fold). The first is the more potent here.

Going from Cc1noc(-c2cc3cc(-c4nc(C(=O)NCc5nnc6n5CCC6)[nH]c4C)ccc3[nH]2)n1 to Cc1noc(-c2cc3cc(-c4nc(C(=O)NCc5nnc(C)[nH]5)[nH]c4C)ccc3[nH]2)n1, the IC50 rises from 4 nM to 17 nM (4.2-fold). The first is the more potent here.

Going from Cn1nc(C(=O)NCc2ccc(C(=O)O)cc2)cc1-c1ccc2[nH]c(-c3ccncc3)cc2c1 to Cn1nc(C(=O)NCc2ccc(C(=O)O)cc2)cc1-c1ccc2[nH]c(-c3ccnc(F)c3)cc2c1, the IC50 rises from 0.8 nM to 2 nM (2.5-fold).

Compared with Cc1noc(-c2cc3cc(-c4nc(C(=O)NCC5(O)CCOCC5)[nH]c4C)ccc3[nH]2)n1, Cc1noc(-c2cc3cc(-c4nc(C(=O)NC5CCOCC5)[nH]c4C)ccc3[nH]2)n1 is 18-fold higher in IC50: 6 nM for the first, 106 nM for the second. The first is the more potent here.

Going from Cc1noc(-c2cc3cc(-c4cc(C(=O)NCC5CCOCC5)nn4C)ccc3[nH]2)n1 [1-methyl-5-[2-(3-methyl-1,2,4-oxadiazol-5-yl)-1H-indol-5-yl]-N-(tetrahydro-2H-pyran-4-ylmethyl)-1H-pyrazole-3-carboxamide] to Cc1noc(-c2cc3cc(-c4cc(C(=O)NCc5ccccc5)nn4C)ccc3[nH]2)n1 [N-benzyl-1-methyl-5-[2-(3-methyl-1,2,4-oxadiazol-5-yl)-1H-indol-5-yl]-1H-pyrazole-3-carboxamide], the IC50 falls from 116 nM to 26 nM (4.5-fold).

First: Cc1noc(-c2cc3cc(-c4ccnc(C(=O)NCc5ccc(C(=O)O)cc5)c4)ccc3[nH]2)n1
Second: Cn1nc(C(=O)NCc2ccc(C(=O)O)cc2)cc1-c1ccc2[nH]c(-c3ccc(F)nc3)cc2c1
The IC50 of the first is 240-fold lower: 0.2 nM for the first, 48 nM for the second.

Going from Cc1cc(-c2cc3cc(-c4cc(C(=O)NCc5ccc(C(=O)O)cc5)nn4C)ccc3[nH]2)ccc1F to Cc1cc(-c2cc3cc(-c4cc(C(=O)NCc5ccc(C(=O)O)cc5)nn4C)ccc3[nH]2)cc(F)n1, the IC50 rises from 30 nM to 53 nM (1.8-fold). The first is the more potent here.

Cn1nc(C(=O)NCc2ccc(C(=O)O)cc2)cc1-c1ccc2[nH]c(C#N)cc2c1 and Cn1nc(C(=O)NCc2ccc(C(=O)O)cc2)cc1-c1ccc2[nH]c(C3=NCCO3)cc2c1 are within 1.5-fold of each other in IC50: 52 nM for the first, 43 nM for the second.

Going from CCOC(=O)c1cc2cc(-c3nc(C(=O)OCC)[nH]c3C)ccc2[nH]1 [5-(2-Ethoxycarbonyl-5-methyl-1H-imidazol-4-yl)-1H-indole-2-carboxylic acid ethyl ester] to CCOC(=O)c1cc2cc(-c3nc(C(=O)NCc4ccncc4)[nH]c3C)ncc2[nH]1, the IC50 falls from 39 nM to 7 nM (5.6-fold). The second is the more potent here.

First: Cc1noc(-c2cc3cc(-c4cc(C(=O)NCc5ccnc(Cl)c5)nn4C)ccc3[nH]2)n1 [N-[(2-chloropyridin-4-yl)methyl]-1-methyl-5-[2-(3-methyl-1,2,4-oxadiazol-5-yl)-1H-indol-5-yl]-1H-pyrazole-3-carboxamide]
Second: Cn1cc(-c2cc3cc(-c4cc(C(=O)NCc5ccc(C(=O)O)cc5)nn4C)ccc3[nH]2)cn1
The IC50 of the first is 2.7-fold higher: 4 nM for the first, 1.5 nM for the second. The second is the more potent here.

First: Cc1noc(-c2cc3cc(-c4nc(C(=O)NCC5CCCCO5)[nH]c4C)ccc3[nH]2)n1 (stereo not shown)
Second: Cc1noc(-c2cc3cc(-c4nc(C(=O)N5CCCC5)[nH]c4C)ccc3[nH]2)n1
The IC50 of the first is 23-fold lower: 5 nM for the first, 113 nM for the second.

Going from CCOC(=O)c1[nH]c2ccc(-c3nc(C(=O)NCc4ccncc4)[nH]c3C)cc2c1F to Cc1noc(-c2cc3cc(-c4nc(C(=O)NCc5ccc(C(O)C(F)(F)F)cc5)[nH]c4C)ccc3[nH]2)n1 (stereo not shown), the IC50 rises from 7 nM to 18 nM (2.6-fold).

First: Cc1noc(-c2cc3cc(-c4nc(C(=O)NCc5noc(C)n5)[nH]c4C)ccc3[nH]2)n1
Second: Cn1nc(C(=O)NCc2ccc(C(=O)O)cc2)cc1-c1ccc2[nH]c(-c3cncnc3)cc2c1
The IC50 of the first is 5.6-fold lower: 0.9 nM for the first, 5 nM for the second.
